A short description of series [1]: Solubility of the cyclic peptides in MilliQ water. As to the method: (§1) In order to determine the minimum gelation concentration in water, the cyclic peptides were attempted to be dissolved in MilliQ water.
(§2) In order to introduce a charged amino acid residue cLK6 was synthesized and its ability to form hydrogels was investigated. For this purpose cLK6 was dissolved at a concentration of 10 mg/mL in water.

The nature of series [2]: Gelation / self-assembly in water. It counts as physicochemical. As to the method: as §1, §2
For series [3] the following is noted: stimuli responsive behaviour to salt; applicant's previous studies; cited from earlier work.
Series [4] is described as follows: Stimuli response of gelation to salt (1× PBS). Conditions: 5 mg/mL in 1× PBS, after vortexing. It counts as physicochemical. As to the method:
Our previous studies on the parent peptide Ac-LIVAGK-NH2 have shown stimuli responsive behaviour to salt, which allows to reduce the minimum gelation concentration by 50%. […] For this purpose, cLK6 was dissolved in 9 parts of water and afterwards 1 part of 10× PBS solution was added.

Entries after “also recorded” stand apart in the source; their conditions may differ. Non-standard residues stand in square brackets, D forms with d. Residues, ends and D or L forms follow the SMILES beside them.

With `CC[C@H](C)[C@@H]1NC(=O)[C@@H](CC(C)C)NC(=O)[C@H](CO)NC(=O)CNC(=O)[C@H](C)NC(=O)[C@@H](C(C)C)NC1=O` [cLS6, cLIVAGS] (cyclo([dL]I[dV]AGS)), the solubility in water result in series [1] (MilliQ water) is listed as “low solubility; also recorded: limited water solubility”. In addition, in series [2] (dissolved in hexafluoroisopropanol (HFIP) and dropped slowly into water), the self-assembly in water entry is given as “gelatinous “precipitate” is formed; also recorded: still displays self-assembling properties”.

Turning to “Ac-LIVAGK-NH2 [linear parent ultrashort peptide of cLK6, previously reported by the inventors]”, the “reduction of the minimum gelation concentration by salt” value in series [3] is recorded as 50%.

Take `CC[C@H](C)[C@@H]1NC(=O)[C@@H](CC(C)C)NC(=O)[C@H](CCCCN)NC(=O)CNC(=O)[C@H](C)NC(=O)[C@@H](C(C)C)NC1=O` [cLK6, cLIVAGK] (cyclo([dL]I[dV]AGK)): in series [4], the “gel formation in salt solution” value is reported as “only peptide aggregation, resulting in precipitation”. For the same compound, the “solubility in water at 10 mg/mL” value in series [1] (10 mg/mL in water) was “full solubility was only achieved, when the peptide solution was heated at 60 °C for about 2 h”. The gel formation result in series [2] (5 mg/mL in water, prepared in the same way, overnight) was “clear hydrogel was formed”; in series [2] (10 mg/mL in water, heated at 60° C., then standing at room temperature), “opaque sol gel was formed”; in series [2] (peptide concentration further reduced below 5 mg/mL in water), “no hydrogel formation”.

The record behind these values is US20180030093A1, “SELF-ASSEMBLING ULTRASHORT ALIPHATIC CYCLIC PEPTIDES FOR BIOMEDICAL APPLICATIONS” (Agency for Science, Technology and Research, priority 2015, published 2018).
